Measurements taken from patent US7211587B2, “Quinoline derivatives and quinazoline derivatives having azolyl group” (Kirin Beer Kabushiki Kaisha, priority 2001, dated 2007).

How the values were obtained:
[1] = system: Human pulmonary carcinoma cells (LC-6); assay: Antitumor activity against human pulmonary carcinoma cells (LC-6) using nude rats; format: in vivo; conditions: LC-6 in nude rats
Procedure: (§1) Human pulmonary carcinoma cells (LC-6) (obtained from Central Laboratories for Experimental Animals) were transplanted into nude rats. When the tumor volume became about 700 mm^3, the rats were grouped so that each group consisted of four rats and the average tumor volume was even among the groups. A test compound was orally administered at doses of 0.2, 0.5, 1.0, and 5.0 mg/kg to the test groups every day once a day for 14 days, while only a vehicle was administered to a control group in the manner as in the test groups. The tumor growth inhibition rate (TGIR) was calculated as follows: The tumor growth inhibition rate (TGIR)=(1−TX/CX)×100 wherein CX represents the volume of tumor at day X for the control group when the tumor volume at the first day of the administration was presumed to be 1; and TX represents the tumor volume for test compound administration groups.

[2] = system: Human colon carcinoma cells (LS174T); assay: Antitumor activity against human colon carcinoma cells (LS174T) using nude mice; format: in vivo; conditions: LS174T (printed LS17) in nude mice, oral 5 mg/kg once a day for 9 days
Procedure: (§2) Human colon carcinoma cells (LS174T) (obtained from American Type Culture Collection) or human pulmonary carcinoma cells (A549) (obtained from RIKEN Cell Bank) were transplanted into nude mice. When the tumor volume became about 150 mm^3, the mice were grouped so that each group consisted of four mice and the average tumor volume was even among the groups. A test compound was orally administered at doses of 5 and 20 mg/kg to the test groups every day once a day for 9 days, while only a vehicle was administered to a control group in the manner as in the test groups. The tumor growth inhibition rate (TGIR) was calculated as follows: The tumor growth inhibition rate (TGIR)=(1−TX/CX)×100 wherein CX represents the volume of tumor at day X for the control group when the tumor volume at the first day of the administration was presumed to be 1; and TX represents the tumor volume for test compound administration groups.

[3] = system: human pulmonary carcinoma cells (A549); assay: Antitumor activity against human pulmonary carcinoma cells (A549) using nude mice; format: in vivo; conditions: A549 in nude mice, oral 20 mg/kg once a day for 9 days
Procedure: as §2

[4] = system: Human pulmonary carcinoma cells (LC-6); assay: Antitumor activity against human pulmonary carcinoma cells (LC-6) transplanted into nude mice; format: in vivo; conditions: Mus musculus, 216 h; LC-6 in nude mice, oral 20 mg/kg once a day for 9 days; read-out: TGIR (tumor growth inhibition rate)
Procedure: as §1, with “mice.” for “rats.”, “100” for “700”, “mice” for “rats”, “a dose” for “doses”, “20” for “0.2, 0.5, 1.0, and 5.0”, “9” for “14”

human KDR = biological target: T1, human KDR (Homo sapiens, UniProt P35968); assay: Inhibitory activity against KDR phosphorylation by ELISA (VEGF-stimulated NIH 3T3 cells expressing human KDR); format: cell-based; conditions: VEGF 100 ng/ml, compound 1 hr, read-out: IC50 (inhibition of KDR phosphorylation)
T1 construct: expressed in transfected cells; host or cells: NIH 3T3 cells (mouse fibroblasts) stably expressing human KDR
Procedure: The harvested cells were inoculated into wells of a collagen-type one-coat 96-well flat-bottom plate, each containing the same medium, in an amount of 1.5×10^4 per well, followed by cultivation at 37° C. overnight. The medium was then replaced by a DMEM medium containing 0.1% fetal calf serum. A solution of a test compound in dimethyl sulfoxide was added to each well, and the cultivation was continued at 37° C. for additional one hr. A human recombinant vascular endothelial growth factor (hereinafter abbreviated to “VEGF”) was added to a final concentration of 100 ng/ml, and the stimulation of cells was carried out at 37° C. for 2 min. The medium was removed, the cells were washed with phosphate buffered saline (pH 7.4), and 50 μl of a solubilization buffer (20 mM HEPES (pH 7.4), 150 mM NaCl, 0.2% Triton X-100, 10% glycerol, 5 mM sodium orthovanadylate, 5 mM disodium ethylenediaminetetraacetate, and 2 mM Na4P2O7) was then added thereto. The mixture was shaken at 4° C. for 2 hr to prepare a cell extract.
Separately, phosphate buffered saline (50 μl, pH 7.4) containing 5 μg/ml of an anti-phospho-tyrosine antibody (PY20; purchased from Transduction Laboratories) was added to a microplate for ELISA (Maxisorp; purchased from NUNC), followed by standing at 4° C. overnight to form a solid phase on the wells. After washing of the plate, 300 μl of a blocking solution was added, followed by standing at room temperature for 2 hr to perform blocking. After washing, the whole quantity of the cell extract was transferred to the wells, and the plate was then allowed to stand at 4° C. overnight. After washing, an anti-KDR antibody (purchased from Santa Cruz) was allowed to react at room temperature for one hr, and, after washing, a peroxidase-labeled anti-rabbit Ig antibody (purchased from Amersham) was allowed to react at room temperature for one hr. After washing, a chromophoric substrate for peroxidase (purchased from Sumitomo Bakelite Co., Ltd.) was added thereto to initiate a reaction. After a suitable level of color development, a reaction termination solution was added to stop the reaction, and the absorbance at 450 nm was measured with a microplate reader. The KDR phosphorylation activity for each well was determined by presuming the absorbance with the addition of VEGF and without the addition of the medicament to be 100% KDR phosphorylation activity and the absorbance without the addition of the medicament and VEGF to be 0% KDR phosphorylation activity.

[5] = oral 5 mg/kg once a day for 14 days

T1 sequence (P35968 20-1356): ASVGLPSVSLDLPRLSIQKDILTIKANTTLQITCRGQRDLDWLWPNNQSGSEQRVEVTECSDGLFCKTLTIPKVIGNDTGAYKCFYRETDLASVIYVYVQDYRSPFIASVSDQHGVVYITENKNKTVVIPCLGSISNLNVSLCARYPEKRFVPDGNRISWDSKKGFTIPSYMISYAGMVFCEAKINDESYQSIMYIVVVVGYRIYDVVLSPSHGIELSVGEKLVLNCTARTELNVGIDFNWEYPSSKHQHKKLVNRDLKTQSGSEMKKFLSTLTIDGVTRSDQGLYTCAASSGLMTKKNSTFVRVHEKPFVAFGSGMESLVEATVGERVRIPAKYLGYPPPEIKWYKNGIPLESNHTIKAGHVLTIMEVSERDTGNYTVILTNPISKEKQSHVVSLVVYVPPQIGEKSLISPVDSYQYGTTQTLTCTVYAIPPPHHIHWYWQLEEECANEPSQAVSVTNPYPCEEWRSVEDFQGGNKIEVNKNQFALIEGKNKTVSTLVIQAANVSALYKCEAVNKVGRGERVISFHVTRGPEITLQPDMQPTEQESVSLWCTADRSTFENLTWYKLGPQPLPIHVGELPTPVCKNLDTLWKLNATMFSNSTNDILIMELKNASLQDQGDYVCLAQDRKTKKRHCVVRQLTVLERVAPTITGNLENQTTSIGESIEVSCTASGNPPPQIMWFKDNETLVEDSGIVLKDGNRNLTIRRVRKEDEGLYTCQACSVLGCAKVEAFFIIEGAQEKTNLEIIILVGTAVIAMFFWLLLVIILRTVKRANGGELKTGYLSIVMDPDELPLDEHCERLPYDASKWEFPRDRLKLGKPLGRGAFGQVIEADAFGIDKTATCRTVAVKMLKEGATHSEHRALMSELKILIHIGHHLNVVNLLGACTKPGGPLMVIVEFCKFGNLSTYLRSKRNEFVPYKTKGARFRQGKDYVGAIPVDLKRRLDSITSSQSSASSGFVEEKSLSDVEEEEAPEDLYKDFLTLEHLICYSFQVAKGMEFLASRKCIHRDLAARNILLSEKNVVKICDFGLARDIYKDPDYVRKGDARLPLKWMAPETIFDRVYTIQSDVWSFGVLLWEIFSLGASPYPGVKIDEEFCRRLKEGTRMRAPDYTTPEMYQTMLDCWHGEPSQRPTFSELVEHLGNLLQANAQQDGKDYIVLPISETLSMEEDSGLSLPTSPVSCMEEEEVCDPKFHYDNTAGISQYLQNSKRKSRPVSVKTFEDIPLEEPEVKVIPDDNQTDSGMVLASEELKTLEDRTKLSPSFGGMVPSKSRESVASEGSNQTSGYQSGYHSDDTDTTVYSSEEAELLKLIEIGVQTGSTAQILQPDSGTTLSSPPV

SMILES | IC50 (human KDR) [nM] | TGIR (tumor growth inhibition rate) ([1]; oral 0.2 mg/kg once a day for 14 days) [%] | TGIR (tumor growth inhibition rate) ([1]; oral 0.5 mg/kg once a day for 14 days) [%] | TGIR (tumor growth inhibition rate) ([1]; oral 1 mg/kg once a day for 14 days) [%] | TGIR (tumor growth inhibition rate) [2] [%] | TGIR (tumor growth inhibition rate) [3] [%] | inhibition in vivo at 20 mg/kg [4] [%] | TGIR (tumor growth inhibition rate) [1, 5] [%]
COc1cc2nccc(Oc3ccc(NC(=O)Nc4cc(C)on4)c(Cl)c3)c2cc1OC [Ex. 4, N-{2-Chloro-4-[(6,7-dimethoxy-4-quinolyl)oxy]phenyl}-N′-(5-methyl-3-isoxazolyl)urea] |  | 62 | 80 | 88 | 65 | 65 | 55.4 | 
COc1cc2nccc(Oc3ccc(NC(=O)Nc4nccs4)c(F)c3)c2cc1OC.Cl [Ex. 27, N-{4-[(6,7-Dimethoxy-4-quinolyl)oxy]-2-fluorophenyl}-N′-(1,3-thiazol-2-yl)urea hydrochloride] | 0.3 |  |  |  |  |  |  | 82
COc1cc2nccc(Oc3ccc(NC(=O)Nc4nc(C)cs4)c(F)c3)c2cc1OC.Cl [Ex. 28, N-{4-[(6,7-Dimethoxy-4-quinolyl)oxy]-2-fluorophenyl}-N′-(4-methyl-1,3-thiazol-2-yl)urea hydrochloride] | 0.3 |  |  |  |  |  | 66.3 | 59
COc1cc2ncnc(Oc3ccc(NC(=O)Nc4nccs4)c(Cl)c3)c2cc1OC [Ex. 38, N-{2-Chloro-4-[(6,7-dimethoxy-4-quinazolinyl)oxy]phenyl}-N′-(1,3-thiazol-2-yl)urea] | < 1 |  |  |  |  |  | 92 | 78

More lines, main results first:

IC50 (human KDR) [nM] | SMILES | TGIR (tumor growth inhibition rate) ([1]; oral 0.2 mg/kg once a day for 14 days) [%] | TGIR (tumor growth inhibition rate) ([1]; oral 0.5 mg/kg once a day for 14 days) [%] | TGIR (tumor growth inhibition rate) ([1]; oral 1 mg/kg once a day for 14 days) [%] | TGIR (tumor growth inhibition rate) [2] [%] | TGIR (tumor growth inhibition rate) [3] [%] | inhibition in vivo at 20 mg/kg [4] [%] | TGIR (tumor growth inhibition rate) [1, 5] [%]
36 | COc1cc2nccc(Oc3ccc(NC(=O)Nc4nnc(C)s4)c(F)c3)c2cc1OC [Ex. 58, N-{4-[(6,7-Dimethoxy-4-quinolyl)oxy]-2-fluorophenyl}-N′-(5-methyl-1,3,4-thiadiazol-2-yl)urea] |  |  |  |  |  | 13.4 | 
4.1 | COc1cc2nccc(Oc3cc(C)c(NC(=O)Nc4nnc(C5CC5)s4)cc3C)c2cc1OC [Ex. 69, N-(5-Cyclopropyl-1,3,4-thiadiazol-2-yl)-N′-{4-[(6,7-dimethoxy-4-quinolyl)oxy]-2,5-dimethylphenyl}-urea] |  |  |  |  |  | 23.3 | 
